# Reference: ChEMBL document CHEMBL3046079, “Synthesis, herbicidal activity, and mode of action of IR 5790” (J Agric Food Chem, 2001)
# Key:
# Setaria viridis [1] = assay: Pre-emergence herbicidal activity against Setaria viridis (green foxtail) assessed as injury at 150 g/ha applied at 24 hr post-sowing measured after 28 days relative to control; assay type: functional
# Alopecurus myosuroides [2] = assay: Pre-emergence herbicidal activity against Alopecurus myosuroides assessed as injury at 50 g/ha applied at 24 hr post-sowing measured after 28 days relative to control; assay type: functional
# Stellaria media [3] = assay: Pre-emergence herbicidal activity against Stellaria media assessed as injury at 150 g/ha applied at 24 hr post-sowing measured after 28 days relative to control; assay type: functional
# Digitaria sanguinalis [4] = assay: Pre-emergence herbicidal activity against Digitaria sanguinalis (hairy crabgrass) assessed as injury at 50 g/ha applied at 24 hr post-sowing measured after 28 days relative to control; assay type: functional
# Persicaria maculosa [5] = assay: Pre-emergence herbicidal activity against Persicaria maculosa assessed as injury at 50 g/ha applied at 24 hr post-sowing measured after 28 days relative to control; assay type: functional
# Galium aparine = assay: Pre-emergence herbicidal activity against Galium aparine assessed as injury at 150 g/ha applied at 24 hr post-sowing measured after 28 days relative to control; assay type: functional
# Beta vulgaris = assay: Phytotoxicity against Beta vulgaris assessed as injury at 50 g/ha applied as pre-emergent treatment at 24 hr post-sowing measured after 28 days relative to control; assay type: organism-based; conditions: in vivo, other, 672 h
# Calystegia sepium [6] = assay: Post-emergence herbicidal activity against Calystegia sepium assessed as injury at 15 g/ha applied at 15 days post-sowing measured after 15 days relative to control; assay type: functional
# Alopecurus myosuroides [7] = assay: Pre-emergence herbicidal activity against Alopecurus myosuroides assessed as injury at 150 g/ha applied at 24 hr post-sowing measured after 28 days relative to control; assay type: functional
# Ipomoea purpurea = assay: Post-emergence herbicidal activity against Ipomoea purpurea (common morning-glory) assessed as injury at 50 g/ha applied at 15 days post-sowing measured after 15 days relative to control; assay type: functional
# Amaranthus retroflexus = assay: Pre-emergence herbicidal activity against Amaranthus retroflexus assessed as injury at 150 g/ha applied at 24 hr post-sowing measured after 28 days relative to control; assay type: functional
# Triticum aestivum [8] = assay: Phytotoxicity against Triticum aestivum (wheat) assessed as injury at 150 g/ha applied as post-emergent treatment at 15 days post-sowing measured after 15 days relative to control; assay type: organism-based; conditions: in vivo, other, 360 h
# Calystegia sepium [9] = assay: Pre-emergence herbicidal activity against Calystegia sepium assessed as injury at 150 g/ha applied at 24 hr post-sowing measured after 28 days relative to control; assay type: functional
# Stellaria media [10] = assay: Post-emergence herbicidal activity against Stellaria media assessed as injury at 15 g/ha applied at 15 days post-sowing measured after 15 days relative to control; assay type: functional
# Panicum dichotomiflorum = assay: Post-emergence herbicidal activity against Panicum dichotomiflorum assessed as injury at 50 g/ha applied at 15 days post-sowing measured after 15 days relative to control; assay type: functional
# Geranium dissectum = assay: Pre-emergence herbicidal activity against Geranium dissectum assessed as injury at 50 g/ha applied at 24 hr post-sowing measured after 28 days relative to control; assay type: functional
# Sorghum bicolor = assay: Post-emergence herbicidal activity against Sorghum bicolor assessed as injury at 50 g/ha applied at 15 days post-sowing measured after 15 days relative to control; assay type: functional
# Matricaria chamomilla [11] = assay: Post-emergence herbicidal activity against Matricaria chamomilla assessed as injury at 150 g/ha applied at 15 days post-sowing measured after 15 days relative to control; assay type: functional
# Ammi majus [12] = assay: Post-emergence herbicidal activity against Amni maius assessed as injury at 150 g/ha applied at 15 days post-sowing measured after 15 days relative to control; assay type: functional
# Digitaria sanguinalis [13] = assay: Post-emergence herbicidal activity against Digitaria sanguinalis (hairy crabgrass) assessed as injury at 150 g/ha applied at 15 days post-sowing measured after 15 days relative to control; assay type: functional
# Matricaria chamomilla [14] = assay: Post-emergence herbicidal activity against Matricaria chamomilla assessed as injury at 50 g/ha applied at 15 days post-sowing measured after 15 days relative to control; assay type: functional
# [15] = biological target: T1, Putative protoporphyrinogen IX oxidase (Cucumis sativus) (UniProt C6L817); assay: Inhibition of protoporphyrin oxidase in Cucumis sativus (cucumber) cotyledon disc assessed as increase in extraplastidic protoporphyrin 9 accumulation at 100 uM incubated in dim light for 2 hr by HPLC analysis relative to control
# T1 sequence (whole entry): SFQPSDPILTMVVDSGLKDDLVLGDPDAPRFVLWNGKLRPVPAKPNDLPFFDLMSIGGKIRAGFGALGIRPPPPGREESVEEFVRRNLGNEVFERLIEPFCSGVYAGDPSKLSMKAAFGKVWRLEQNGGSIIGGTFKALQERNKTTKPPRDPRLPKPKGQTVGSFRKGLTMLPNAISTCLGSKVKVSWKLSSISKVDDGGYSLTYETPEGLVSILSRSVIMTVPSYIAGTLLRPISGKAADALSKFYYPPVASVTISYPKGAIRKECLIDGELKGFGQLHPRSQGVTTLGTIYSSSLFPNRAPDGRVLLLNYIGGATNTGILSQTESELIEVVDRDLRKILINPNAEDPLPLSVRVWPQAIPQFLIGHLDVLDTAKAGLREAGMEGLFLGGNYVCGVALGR
# [16] = Aqueous solubility of the compound; assay type: physicochemical; conditions: water
# [17] = Toxicity in po dosed Rattus norvegicus (rat); assay type: organism-based; conditions: in vivo
# Gossypium hirsutum = assay: Phytotoxicity against Gossypium hirsutum (cotton) assessed as injury at 50 g/ha applied as post-emergent treatment at 15 days post-sowing measured after 15 days relative to control; assay type: organism-based; conditions: in vivo, other, 360 h
# Ammi majus [18] = assay: Post-emergence herbicidal activity against Amni maius assessed as injury at 50 g/ha applied at 15 days post-sowing measured after 15 days relative to control; assay type: functional
# Phalaris arundinacea [19] = assay: Pre-emergence herbicidal activity against Phalaris arundinacea assessed as injury at 150 g/ha applied at 24 hr post-sowing measured after 28 days relative to control; assay type: functional
# Setaria viridis [20] = assay: Post-emergence herbicidal activity against Setaria viridis (green foxtail) assessed as injury at 150 g/ha applied at 15 days post-sowing measured after 15 days relative to control; assay type: functional
# Triticum aestivum [21] = assay: Phytotoxicity against Triticum aestivum (wheat) assessed as injury at 150 g/ha applied as pre-emergent treatment at 24 hr post-sowing measured after 28 days relative to control; assay type: organism-based; conditions: in vivo, other, 672 h
# Triticum aestivum [22] = assay: Phytotoxicity against Triticum aestivum (wheat) assessed as injury at 15 g/ha applied as post-emergent treatment at 15 days post-sowing measured after 15 days relative to control; assay type: organism-based; conditions: in vivo, other, 360 h
# Chenopodium album = assay: Pre-emergence herbicidal activity against Chenopodium album assessed as injury at 150 g/ha applied at 24 hr post-sowing measured after 28 days relative to control; assay type: functional
# Phalaris arundinacea [23] = assay: Post-emergence herbicidal activity against Phalaris arundinacea assessed as injury at 50 g/ha applied at 15 days post-sowing measured after 15 days relative to control; assay type: functional
# Solanum nigrum = assay: Post-emergence herbicidal activity against Solanum nigrum (black nightshade) assessed as injury at 15 g/ha applied at 15 days post-sowing measured after 15 days relative to control; assay type: functional
# Persicaria maculosa [24] = assay: Post-emergence herbicidal activity against Persicaria maculosa assessed as injury at 150 g/ha applied at 15 days post-sowing measured after 15 days relative to control; assay type: functional
structure (smiles),measurement,setting,value
C#CCOc1cc(-n2nc(C(C)(C)C)sc2=O)c(Cl)cc1Cl,Activity,Setaria viridis [1],70%
same,Activity,Alopecurus myosuroides [2],10%
same,Activity,Stellaria media [3],30%
same,Activity,Digitaria sanguinalis [4],70%
same,Activity,Persicaria maculosa [5],0%
same,Activity,Galium aparine,0%
same,Activity,Beta vulgaris,10%
same,Activity,Calystegia sepium [6],50%
same,Activity,Alopecurus myosuroides [7],70%
same,Activity,Ipomoea purpurea,90%
same,Activity,Amaranthus retroflexus,90%
same,Activity,Triticum aestivum [8],50%
same,Activity,Calystegia sepium [9],0%
same,Activity,Stellaria media [10],0%
same,Activity,Panicum dichotomiflorum,50%
same,Activity,Geranium dissectum,0%
same,Activity,Sorghum bicolor,0%
same,Activity,Matricaria chamomilla [11],10%
same,Activity,Ammi majus [12],10%
same,Activity,Digitaria sanguinalis [13],70%
same,Activity,Matricaria chamomilla [14],0%
same,fold change (FC),[15],292
same,solubility,[16],1.1 µg/mL
same,LD50,[17],> 4000 mg/kg
same,Activity,Gossypium hirsutum,30%
same,Activity,Ammi majus [18],0%
same,Activity,Phalaris arundinacea [19],0%
same,Activity,Setaria viridis [20],70%
same,Activity,Triticum aestivum [21],0%
same,Activity,Triticum aestivum [22],0%
same,Activity,Chenopodium album,90%
same,Activity,Phalaris arundinacea [23],30%
same,Activity,Solanum nigrum,10%
same,Activity,Persicaria maculosa [24],90%
